Consider 6 substances from patent US20060240026A1, “Preventing and/or remedy hematopoietic tumor” (GREEN PEPTIDE CO., LTD., priority 2003, published 2006).

“Also recorded” adds a separate entry of the source. Ends that are not written are not given here.

The nature of data set [1]: Side effects and skin test, chronic lymphocytic leukemia patient. In kind it is in vivo, human. The method, then: Three kinds of emulsions each of which contains each of these peptides respectively and an adjuvant were prepared according to the method described in Example 1, and vaccinated to the patient by injecting subcutaneously at different sites of the patient's lateral thigh. […] The skin test was conducted by injecting intradermally the solution of 50 μg of each peptide in physiological saline and determining immediate-type or delayed-type hypersensitivity reaction at 20 minutes or 24 hours after the injection.
Therefore, SART-293 (SEQ ID NO: 5) and SART-3109 (SEQ ID NO: 8) were used for vaccination. […] In the clinical trials of peptide vaccines in epithelial cancer patients, there has been observed a correlation between the survival rate of patients and the increased humoral immune responses against the peptides used in the vaccines. From these facts, it was believed that SART-293 (SEQ ID NO: 5) and SART-3109 (SEQ ID NO: 8) were effective in this patient.
Thus, there were very few side effects observed.

Data set [2] deals with HLA-A24- hematologic malignant cell line (HPB-MLT). Briefly: 51Cr-release test of peptide-stimulated PBMCs against HLA-A24- malignant line. In kind it is cell-based, human. To be noted: peptide-stimulated patient PBMCs further cultured with IL-2; effector/target 3, 10 or 30; 6 h. The method, then:
(§1) Then, the cytotoxicity against hematologic malignant cell lines was examined by a standard ^51Cr-release test (Non-Patent Reference 5). Specifically, the PBMCs obtained were used as an effector to mix with ^51Cr-labelled target cells (hereinafter referred to as targets) at an effector/target rate of 3, 10 or 30, and then incubated for six hours, followed by measuring the radioactivity of ^51Cr released in the supernatants. The results obtained were indicated as % lysis which was calculated by regarding a radioactivity as 100% when the targets were completely dissolved. The following targets were used: PEER, an HLA-A24^+ hematologic malignant cell line; HPB-MLT, an HLA-A24^− hematologic malignant cell line; and an HLA-A24^+ PHA blastoid T-cell.

For data set [3], the system named is HLA-A24+ PHA blastoid T-cell. Briefly: 51Cr-release test of peptide-stimulated PBMCs against normal cells. The format is cell-based, human. To be noted: peptide-stimulated patient PBMCs further cultured with IL-2; effector/target 3, 10 or 30; 6 h. As to the method: as §1
Data set [4] relates to HLA-A24+ hematologic malignant cell line (PEER, REH). Briefly: 51Cr-release test of peptide-stimulated PBMCs against HLA-A24+ malignant line. In kind it is cell-based, human. The conditions noted are these: peptide-stimulated patient PBMCs further cultured with IL-2; effector/target 3, 10 or 30; 6 h. The method, then:
as §1

Data set [5] deals with PBMCs of HLA-A24+ patients with hematologic malignancies. Nature of the data set: IFN-γ production by peptide-stimulated patient PBMCs in response to peptide-pulsed C1R-A24 cells. In kind it is cell-based, human. Further details: peptide-specific IFN-γ production: unit not given here. The conditions noted are these: for peptide-specific IFN-γ production: 10 μM peptide in vitro, vs peptide-pulsed C1R-A24, HIV-peptide background subtracted. The method, then: The induction of peptide-specific cytotoxic T lymphocytes from PBMCs of a patient with hematologic malignancy was conducted as reported preveously (Non-Patent Reference 5). The following peptides were used to induce cytotoxic T lymphocytes: p56^lck protein-derived peptides (Lck208 (SEQ ID NO: 1), Lck488 (SEQ ID NO: 2) and Lck486 (SEQ ID NO: 3)); SART-1-derived peptide (SART-1690 (SEQ ID NO: 4)); SART-2-derived peptides (SART-293 (SEQ ID NO: 5), SART-2161 (SEQ ID NO: 6) and SART-2899 (SEQ ID NO: 7)); SART-3-derived peptides (SART-3109 (SEQ ID NO: 8) and SART-3315 (SEQ ID NO: 9)); and ART-1-derived peptide (ART-1170 (SEQ ID NO: 10)). All of these peptides are the epithelial cancer-related antigen-derived peptides and have the ability to induce cytotoxic T lymphocytes from PBMCs of an epithelial cancer patient in an HLA-A24 dependent manner (Non-Patent References 3-6 and 12). A human immunodeficiency virus (HIV)-derived peptide (SEQ ID NO: 11) and Epstein-Barr virus (EBV)-derived peptide (SEQ ID NO: 12) were used respectively as a negative control peptide and positive control peptide both of which have an HLA-A24-binding motif. […] PBMCs were prepared from peripheral blood that was collected from a patient with hematologic malignancy using Ficoll-Conray density-gradient centrifugation. The expression of HLA-A24 molecules on PBMCs was determined using flow cytometry by a well known method (Non-Patent Reference 5). The induction of cytotoxic T lymphocytes from PBMCs was conducted as follows. […] The culture medium consisted of 45% RPMI-1640, 45% AIM-V (Invitrogen), 10% FCS, 100 U/ml of interleukin-2 (IL-2), and 0.1 mM MEM non-essential amino acid solution (Invitrogen). […] The background IFN-γ production in response to the HIV-derived peptide (SEQ ID NO: 11) was subtracted from the values given in the data. When the mean value of the IFN-γ produced from the peptide-stimulated PBMCs in response to a corresponding peptide was higher than that produced in response to the HIV peptide (SEQ ID NO: 11), it was judged that the precursor of a peptide-specific cytotoxic T lymphocyte was present in the PBMCs and that the peptide-specific cytotoxic T lymphocytes were induced by the peptide. PBMCs of ten cases of HLA-A24^+ patients with hematologic malignancies (two cases with CLL, one case with MCL, one case with NHL, one case with B-ALL, one case with MM, one case with MDS, two cases with ATL, and one case with T-ALL) were tested for the induction of cytotoxic T lymphocytes using peptides that were derived from p56^lck protein, SART-1, SART-2, SART-3 and ART-1. The peptides used were the peptides that induced peptide-specific tumor-reactive cytotoxic T lymphocytes from PBMCs of an HLA-A24^+ epithelial cancer patient, which are currently on clinical trials for use as vaccines for epithelial cancer patients. The PBMCs were stimulated with the peptide in vitro to measure the peptide-specific IFN-γ production.

The subject of data set [6] is C1R-A24 cells pulsed with the peptides. Nature of the data set: IFN-γ production of PBMCs of vaccinated chronic lymphocytic leukemia patient. To be noted: CLL patient No. 1, with the increasing number of peptide vaccination. The format is in vivo, human. An excerpt: The patient (patient No. 1 in table 2) subjected to clinical trials was a HLA-A24^+ […] suffering from chronic lymphocytic leukemia with a stage A by Bernet's classification.
(§2) Two kinds of emulsions prepared using these peptides according to the methods described in Example 5 were vaccinated to the patient by injecting subcutaneously at different sites of the patient's lateral thigh.
After each vaccination, PBMCs derived from the patient were studied for the peptide-specific cytotoxic T lymphocyte induction by measuring the amount of IFN-γ production as an indicator against C1R-A24 cells pulsed with the peptides used (see Example 3).

For data set [7] the test system is unchanged. Briefly: Cytotoxic activity of PBMCs of vaccinated chronic lymphocytic leukemia patient (51Cr-release). In kind it is in vivo, human. The conditions noted are these: CLL patient No. 1, PBMCs after vaccination, 51Cr-release test.
Text: as §2

As for VYDYNCHVDL [SART-3109], in data set [1] (CLL patient No. 1, after the third vaccination), the delayed-type hypersensitivity reaction result is given as “delayed-type hypersensitivity reaction was observed”.

With AYDFLYNYL [SART-2161], in data set [2], the “cytotoxic activity (% lysis) against HLA-A24- hematologic malignant line” value was “did not show cytotoxic activity; also recorded: did not exhibit cytotoxic activity”. The “cytotoxic activity (% lysis) against HLA-A24+ PHA blastoid T-cells” value in data set [3] is “did not show cytotoxic activity; also recorded: did not exhibit cytotoxic activity”. Further, the “cytotoxic activity (% lysis) against HLA-A24+ hematologic malignant line” value in data set [4] was “significant cytotoxic activity; also recorded: exhibited cytotoxic activity”.

Turning to “SART-293: SART-2-derived peptide; epithelial cancer-related antigen peptide (DYSARWNEI; Partial peptide of SART-2)”, the “peptide-specific IFN-γ production” value in data set [5] (PBMCs of patient #1 CLL) turned out to be 0; in data set [5] (PBMCs of patient #2 CLL), 440; in data set [5] (PBMCs of patient #3 MCL) it was 9; in data set [5] (PBMCs of patient #4 NHL), 63; in data set [5] (PBMCs of patient #5 B-ALL), 20; in data set [5] (PBMCs of patient #6 MM), 28. In addition, the “peptide-specific IFN-γ production” value is 0 in data set [5] (PBMCs of patient #7 MDS), 0 in data set [5] (PBMCs of patient #8 ATL), 354 in data set [5] (PBMCs of patient #9 ATL) and 192 in data set [5] (PBMCs of patient #10 T-ALL). Also, the “Responding case/total (enhancement of IFN-γ production)” value in data set [5] (ten HLA-A24+ patients with hematologic malignancies) was 3/10. Also, in data set [6], the “IFN-γ production in response to C1R-A24 cells pulsed with the peptide” value was “enhanced production of interferon (IFN)-γ”. In data set [7], the “cytotoxic activity against peptide-pulsed C1R-A24 cells versus cells pulsed with HIV-derived peptide” value is on record as “higher cytotoxic activity”.

Regarding EYCLKFTKL [ART-1170], in data set [1] (CLL patient No. 1, before vaccination), the “immediate hypersensitivity reaction in skin test” value is given as “caused immediate hypersensitivity reaction”.

As for SYTRLFLIL [SART-2899], the “cytotoxic activity (% lysis) against HLA-A24- hematologic malignant line” value in data set [2] is on record as “did not show cytotoxic activity”. Also, the “cytotoxic activity (% lysis) against HLA-A24+ PHA blastoid T-cells” value in data set [3] is on record as “did not show cytotoxic activity”. Moreover, the “cytotoxic activity (% lysis) against HLA-A24+ hematologic malignant line” value in data set [4] is “significant cytotoxic activity”.

As to TFDYLRSVL [Lck486], the “cytotoxic activity (% lysis) against HLA-A24- hematologic malignant line” value in data set [2] was “did not show cytotoxic activity; also recorded: did not exhibit cytotoxic activity”. In addition, the “cytotoxic activity (% lysis) against HLA-A24+ PHA blastoid T-cells” value in data set [3] is on record as “did not show cytotoxic activity; also recorded: did not exhibit cytotoxic activity”. Moreover, the “cytotoxic activity (% lysis) against HLA-A24+ hematologic malignant line” value in data set [4] was “significant cytotoxic activity; also recorded: exhibited cytotoxic activity”.
